According to publication PMC6830221, “Engineering a surrogate human heteromeric α/β glycine receptor orthosteric site exploiting the structural homology and stability of acetylcholine-binding protein” (IUCrJ, 2019):
Several values for one entry are separate records, joined by “and”; a condition that tells them apart may be missing. Identical values can stand only once. Like-named read-outs stand apart in the source and are kept apart here.

Tests used:
[1] = target: AcAChBP variant II (Aplysia californica, UniProt Q8WSF8, G162E/I135S/Q74R/T53F/Y110A)
Method: (§1) Measurements were recorded using a PerkinElmer LS-55 spectrophotometer with the detector sensitivity set to 750 V. Stock solutions of 10 µg ml^−1 GBP and AcAChBP were prepared, along with two strychnine stock solutions of 100 µM and 1 mM in the same buffer as used for the ITC experiments. The protein samples (2 ml) were excited at a wavelength of 280 nm, and emission was recorded between 300 and 400 nm. For GBP, aliquots of 20 µl of the 1 mM strychnine stock were used, followed by mixing. For AChBP, additions of 2 µl of the 100 µM strychnine stock were made, followed by mixing. Experiments were carried out in triplicate and the percentage change in fluorescence was calculated. Data were analyzed using Microsoft Excel and GraphPad Prism 7.

[2] = target: AcAChBP variant I (Aplysia californica, UniProt Q8WSF8, I135S/Q74R/T53F/W164F/Y110A)
Method: as §1

[3] = target: T1, variant III, glycine-binding protein (GBP) (Aplysia californica, UniProt Q8WSF8, C207G/C208T/G162E/I135S/P209G/Q74R/S206K/T53F/Y110A)
[4] = target: T1, variant III, glycine-binding protein (GBP); remark: listed apart in the source
Method: (§2) Fluorescence-based screening by differential scanning fluorimetry (DSF; see, for example, Eadsforth et al., 2012[▸]) was used to determine the melting temperature (T m) values. An Mx3005P RT PCR system (Stratagene) was used to monitor protein unfolding by the increase in fluorescence of SYPRO Orange dye (Invitrogen). Assays were carried out in 40 µl volumes with proteins at around 10 µM in 50 mM Tris–HCl, 250 mM NaCl pH 7.5 in 96-well RT PCR plates (ABgene). To investigate the influence of the chemical probe strychnine, 1 µl of strychnine dissolved in DMSO or buffer and then diluted with buffer was incubated with the protein solutions for 5 min prior to 71 cycles of 1°C temperature increments starting at 25°C. After each 1°C increase the sample was excited at 492 nm and fluorescence emission was recorded at 610 nm. The melting temperatures were plotted against a reference control sample of DMSO only. The strychnine concentration varied between […], with a requirement to limit the concentration of DMSO in the final mixture to <2.5%.

[5] = target: T1, variant III, glycine-binding protein (GBP); test: biochemical
Method: (§3) The interaction of strychnine with AcAChBP and GBP was investigated using ITC. Measurements were carried out with a MicroCal PEAQ-ITC (Malvern Panalytical) at 25°C. The protein solutions (10 µM AcAChBP, 40 µM GBP) were prepared by dialysis against buffer (50 mM Tris–HCl pH 7.5, 250 mM NaCl) at 4°C overnight. Strychnine solutions (concentrations of 100 and 500 µM) were prepared in the same buffer. For the experiments, the initial injection of one 0.4 µl aliquot was followed by 17 × 2 µl injections at 3 min intervals. In each case the injection needle acted as a paddle, stirring the cell contents at 750 rev min^−1, and the reference was set at 10 µcal s^−1. Data were analyzed using the software supplied by the manufacturer to calculate K d, ΔH, −TΔS, ΔG and N, which were derived from a one-binding-site model. Control measurements, buffer into buffer, strychnine into buffer and buffer into protein solutions, were used to determine an appropriate offset adjustment. Examples of the data, averaged parameters and standard errors derived from three titrations are presented in Supplementary Fig. S1.

[6] = target: T1, variant III, glycine-binding protein (GBP); test: biochemical; remark: listed apart in the source
Method: as §1

[7] = target: T2, WT AcAChBP (Aplysia californica, UniProt Q8WSF8); test: Tryptophan fluorescence-quenching assay; type: binding; parameters: made in house; host or cells: baculovirus/Sf9
Method: as §1

[8] = target: AcAChBP; conditions: ref Hansen et al., cited from earlier work
[9] = ref Haynes, 2015; cited from earlier work
[10] = target: AcAChBP; conditions: ref Brams et al., 2011; cited from earlier work
[11] = target: recombinant homomeric GlyR-α3; conditions: ITC, ref Huang et al., 2015; cited from earlier work
[12] = target: AcAChBP variant II (T53F, Q74R, Y110A, I135S, G162E) (Aplysia californica, UniProt Q8WSF8, G162E/I135S/Q74R/T53F/Y110A); conditions: Table S1, Variant-II
Method: as §2

[13] = target: AcAChBP variant I (T53F, Q74R, Y110A, I135S, W164F) (Aplysia californica, UniProt Q8WSF8, I135S/Q74R/T53F/W164F/Y110A); conditions: Table S1, Variant-I, biphasic melting
Method: as §2

[14] = target: recombinant homomeric GlyR-α1; conditions: ITC, ref Wöhri et al., 2013; cited from earlier work
[15] = target: recombinant homomeric GlyR-α1; conditions: radioligand saturation assay, ref Wöhri et al., 2013; cited from earlier work
[16] = target: T2, WT AcAChBP; test: biochemical
Method: as §3

[17] = target: recombinant homomeric GlyR-α3; conditions: surface plasmon resonance, ref Huang et al., 2015; cited from earlier work
[18] = binding to AcAChBP, stopped-flow spectrofluorimetry, 2005

T1 sequence (Q8WSF8 18-236 C207G/C208T/G162E/I135S/P209G/Q74R/S206K/T53F/Y110A limits assumed): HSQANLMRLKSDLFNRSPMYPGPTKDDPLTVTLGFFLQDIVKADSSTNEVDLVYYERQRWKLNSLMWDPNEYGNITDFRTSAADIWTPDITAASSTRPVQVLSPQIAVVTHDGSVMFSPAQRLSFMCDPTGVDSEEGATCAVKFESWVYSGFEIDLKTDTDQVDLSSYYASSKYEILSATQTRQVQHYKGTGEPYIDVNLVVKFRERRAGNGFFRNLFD
T2 sequence (Q8WSF8 entry or part of it): as the sequence (Q8WSF8 18-236 C207G/C208T/G162E/I135S/P209G/Q74R/S206K/T53F/Y110A limits assumed) above, with F36T, R57Q, A93Y, S118I, E145G, K189S, G190C, T191C, G192P counted along it
AcAChBP variant I, sequence (Q8WSF8 18-236 T53F/Q74R/Y110A/I135S/W164F limits assumed): as the sequence (Q8WSF8 18-236 C207G/C208T/G162E/I135S/P209G/Q74R/S206K/T53F/Y110A limits assumed) above, with E145G, W147F, K189S, G190C, T191C, G192P counted along it
AcAChBP variant I (T53F, Q74R, Y110A, I135S, W164F), sequence (Q8WSF8 18-236 T53F/Q74R/Y110A/I135S/W164F limits assumed): as the sequence (Q8WSF8 18-236 C207G/C208T/G162E/I135S/P209G/Q74R/S206K/T53F/Y110A limits assumed) above, with E145G, W147F, K189S, G190C, T191C, G192P counted along it
AcAChBP variant II, sequence (Q8WSF8 18-236 T53F/Q74R/Y110A/I135S/G162E limits assumed): as the sequence (Q8WSF8 18-236 C207G/C208T/G162E/I135S/P209G/Q74R/S206K/T53F/Y110A limits assumed) above, with K189S, G190C, T191C, G192P counted along it
AcAChBP variant II (T53F, Q74R, Y110A, I135S, G162E), sequence (Q8WSF8 18-236 T53F/Q74R/Y110A/I135S/G162E limits assumed): as the sequence (Q8WSF8 18-236 C207G/C208T/G162E/I135S/P209G/Q74R/S206K/T53F/Y110A limits assumed) above, with K189S, G190C, T191C, G192P counted along it

NCC(=O)O [glycine]
ligand binding (tryptophan fluorescence) [1]: neither did the fluorescence assay register any glycine binding
ligand binding (tryptophan fluorescence) [2]: neither did the fluorescence assay register any glycine binding
association with variant III (biolayer interferometry) [3]: failed to show any binding
ΔTm ([4]; ligand binding to variant III (GBP), DSF): +2 °C
association with variant III (ITC) ([5]; variant III (GBP)): failed to show any binding
association with variant III (fluorescence assay) ([6]; variant III (GBP)): failed to show any binding

CN1CCC[C@H]1c1cccnc1 [nicotine]
Kd ([7]; binding to WT AcAChBP, tryptophan fluorescence, three titrations, read-out: Kd): 245 nM
ligand binding (tryptophan fluorescence) [1]: Neither variant I nor variant II appeared to be able to bind nicotine
ligand binding (tryptophan fluorescence) [2]: Neither variant I nor variant II appeared to be able to bind nicotine
Kd [8, 18]: 250 nM

O=C1C[C@@H]2OCC=C3CN4CC[C@]56c7ccccc7N1[C@H]5[C@H]2[C@H]3C[C@H]46 [strychnine]
pKa [9]: approximately 8.3
Ki [10]: 38 nM
Kd [7]: 155 nM
Kd [11]: 52 nM
∆Tm (C) + strychnine [12]: +5 C
∆Tm (C) + strychnine ([13]; first value): +5 C
∆Tm (C) + strychnine ([13]; second value): +25 C
∆Tm (C) + strychnine ([4]; Table S1, Variant-III (GBP)): +3 C
Kd [14]: 138 nM
Kd [15]: 52 nM
Kd ([8]; AcAChBP, stopped-flow spectrofluorimetry assay, 2004): 15 nM
Kd [5]: 28800 nM
Kd [16]: 74.1 nM
Kd [17]: 43 nM
Kd ([6]; Kd, tryptophan fluorescence, GBP, n=3): 26600 nM and 27000 nM

CN1[C@@H]2CC[C@H]1C[C@@H](OC(=O)c1c[nH]c3ccccc13)C2 [tropisetron]
Kd [7]: 275 nM
Kd [8, 18]: 480 nM
